Among the test systems are MDA-N; XF 498 CNS; DMS 114 small cell lung; HOP-18 NSCLC; M19-MEL melanoma; KM20L2 colon; DMS 273 small cell lung; SNB-78 CNS; RXF-631 renal.
Test in all cases: inhibition of tumour cell growth, NCI panel, 48 h

Each structure is given as a SMILES string. Values after ≈ are worked out from the molar mass of the structure shown. Values joined by “and” are separate entries in the source; they are usually repeats but may differ in a detail not shown here. Equal entries are not always repeated.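 Briefly, cells in 96-well plates were exposed to five compound concentrations for 48 h, and endpoints were estimated by linear interpolation. GI50 is the concentration that inhibits growth by half. TGI marks complete inhibition of growth.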

The values below come from PubChem BioAssay (NCI).

Turning to `O=C1c2cccc(NCCCNCCO)c2C(=O)c2cccc(NCCCNCCO)c21`, the TGI in the experiment with MDA-N was 3.23 µM; in the experiment with XF 498 CNS, 2.4 µM and 7.26 µM; in the experiment with DMS 114 small cell lung it was 1.92 µM and 4.77 µM; with HOP-18 NSCLC, 7.69 µM; with M19-MEL melanoma, 2.24 µM and 3.72 µM; in the experiment on KM20L2 colon, 6.72 µM and 9.95 µM. The TGI is 3.98 µM and 5.13 µM in the experiment with DMS 273 small cell lung; 6.7 µM and 17.1 µM in the experiment with SNB-78 CNS. In addition, the GI50 in the experiment with XF 498 CNS was 0.827 µM and 2.41 µM; in the experiment on DMS 114 small cell lung, 0.476 µM and 1.24 µM; with M19-MEL melanoma, 0.712 µM and 1.8 µM.
The molecule `CS(=O)(=O)Nc1ccc2c(c1)oc(=O)c1ccccc12` displayed a TGI in the experiment with MDA-N greater than 100 µM.
On to `CC1=NNC(=O)C2CCC(=O)N12` (stereo not given), for which the TGI in the experiment on DMS 114 small cell lung, in the experiment on HOP-18 NSCLC, with M19-MEL melanoma, with KM20L2 colon, in the experiment with DMS 273 small cell lung and in the experiment on RXF-631 renal was greater than 100 µM each time. The molecule also yielded a TGI in the experiment on SNB-78 CNS greater than 100 µM.
Consider `COc1cc(C(Cc2ccccc2)NC(C)=O)oc(=O)c1` (stereo not given), for which the TGI with XF 498 CNS, in the experiment with DMS 114 small cell lung, in the experiment with M19-MEL melanoma, in the experiment on KM20L2 colon and in the experiment with DMS 273 small cell lung was greater than 100 µM throughout.
Regarding `COc1cc(N(CCC#N)CCC#N)ccc1/C(N=Nc1ccc([N+](=O)[O-])cc1)=N/NC(=O)c1cc(Br)ccc1O`, in the experiment with MDA-N, the GI50 is 43.8 µg/mL (≈ 70.7 µM) and the TGI was 126 µg/mL.
Take `[N-]=[N+]=NC12CC3C4CC5CC3C(C1)C(C5)C4C2`: the TGI in the experiment on XF 498 CNS, in the experiment with DMS 114 small cell lung, with HOP-18 NSCLC, with M19-MEL melanoma, in the experiment with DMS 273 small cell lung and in the experiment with RXF-631 renal was greater than 100 µM in each case. The molecule further yielded a TGI in the experiment on SNB-78 CNS greater than 100 µM.
Turning to `C=COCCCOc1ccccc1`, the TGI with XF 498 CNS, with DMS 114 small cell lung, in the experiment on HOP-18 NSCLC, with M19-MEL melanoma, with KM20L2 colon and in the experiment on DMS 273 small cell lung was greater than 100 µM in each case.
Take `CC(C)c1ccccc1NC(=O)CCc1n[nH]c(=S)o1`: the TGI in the experiment with XF 498 CNS is greater than 100 µM; in the experiment with DMS 114 small cell lung it was greater than 100 µM; with HOP-18 NSCLC, greater than 100 µM; in the experiment with M19-MEL melanoma, greater than 100 µM; in the experiment with KM20L2 colon, greater than 100 µM; in the experiment on DMS 273 small cell lung it was greater than 90.7 µM. In addition, the TGI in the experiment on RXF-631 renal and with SNB-78 CNS was greater than 100 µM each time.
Turning to `S=C(Nc1ccccc1)N(/N=C/C=C/c1ccccc1)c1nnc(-c2ccccc2)c(-c2ccccc2)n1`, the TGI with XF 498 CNS, in the experiment with DMS 114 small cell lung, with M19-MEL melanoma, in the experiment with KM20L2 colon, in the experiment with DMS 273 small cell lung and in the experiment with RXF-631 renal was greater than 100 µM throughout. In the experiment with SNB-78 CNS, this molecule came in with a TGI greater than 100 µM.
Turning to `S=C1NC2(CCCCCC2)NN1c1ccccc1`, the TGI in the experiment on MDA-N, in the experiment with DMS 114 small cell lung, in the experiment with HOP-18 NSCLC and with RXF-631 renal was greater than 100 µM throughout.
As to `CCC[CH2][Sn]1([CH2]CCC)[O]N=C(c2ccccc2)C(c2ccccc2)[O]1` (stereo not given), the GI50 was 0.965 µM with DMS 114 small cell lung; 1.56 µM in the experiment on M19-MEL melanoma; 2.54 µM in the experiment with KM20L2 colon; 1.59 µM in the experiment with DMS 273 small cell lung; 3.07 µM with SNB-78 CNS. Moreover, the TGI in the experiment on DMS 114 small cell lung was found to be 2.18 µM; in the experiment on M19-MEL melanoma it was 3.13 µM; in the experiment on KM20L2 colon it was 8.74 µM; in the experiment on DMS 273 small cell lung, 3.05 µM; in the experiment on SNB-78 CNS, 8.01 µM.
Consider `Cn1c2c(c3ccccc31)C1CCCCCCC1C1C(=O)OC(=O)C21` (stereo not given), for which the TGI in the experiment with XF 498 CNS was 93.1 µM; in the experiment with DMS 114 small cell lung, 75.2 µM; in the experiment with HOP-18 NSCLC it was greater than 100 µM; in the experiment with M19-MEL melanoma, greater than 100 µM; in the experiment on DMS 273 small cell lung, 42.7 µM; in the experiment on RXF-631 renal it was greater than 100 µM. The molecule also yielded a TGI with SNB-78 CNS greater than 100 µM.
In the case of `O=[N+]([O-])c1ccc(C2=Nn3cnnc3SC2)o1`, the TGI in the experiment on XF 498 CNS came out at 30.2 µM; in the experiment with DMS 114 small cell lung it was 28.8 µM; with M19-MEL melanoma, 13.8 µM; in the experiment with DMS 273 small cell lung, 36.3 µM; with RXF-631 renal it was 28.1 µM; in the experiment with SNB-78 CNS it was 51.9 µM.
With `COc1cccc(/C=C/c2cc(OC)c(OC)c(OC)c2)c1`, the TGI in the experiment on XF 498 CNS was greater than 100 µM; in the experiment with DMS 114 small cell lung, greater than 100 µM; with M19-MEL melanoma it was greater than 100 µM; in the experiment on KM20L2 colon it was 87.7 µM; with DMS 273 small cell lung it was greater than 100 µM; in the experiment with RXF-631 renal, greater than 100 µM. The molecule also returned a TGI with SNB-78 CNS greater than 100 µM.
On to `CN(C)c1nc2ccccc2[nH]1`, for which the TGI in the experiment with DMS 114 small cell lung, in the experiment with HOP-18 NSCLC, with M19-MEL melanoma, with KM20L2 colon and in the experiment with DMS 273 small cell lung was greater than 100 µM each time.
On to `NNC(=S)N/N=C(\CC1OC(=O)c2ccccc21)c1ccccc1O` (stereo not given), for which the TGI with XF 498 CNS, in the experiment on DMS 114 small cell lung, with HOP-18 NSCLC, with M19-MEL melanoma, in the experiment with KM20L2 colon and in the experiment on DMS 273 small cell lung was greater than 100 µM in each case. Further, the TGI in the experiment on RXF-631 renal and in the experiment with SNB-78 CNS was greater than 100 µM in each case.
Consider `Cc1ccc(NC(=O)C(=O)C(C(=O)c2ccc3ccccc3c2)C2OC(=O)c3ccccc32)cc1C` (stereo not given), for which the TGI with XF 498 CNS was 18.2 µM; in the experiment on DMS 114 small cell lung it was 41.3 µM; with HOP-18 NSCLC, 21.7 µM; in the experiment on M19-MEL melanoma it was 20.6 µM; with KM20L2 colon it was greater than 100 µM; in the experiment with DMS 273 small cell lung, 30.3 µM.
With `N#CC(N)(C(=O)CCC(=O)Nc1cccc(Cl)c1)c1ccc(Cl)cc1` (stereo not given), the TGI in the experiment with XF 498 CNS, with DMS 114 small cell lung, with HOP-18 NSCLC, in the experiment with M19-MEL melanoma, in the experiment on KM20L2 colon and in the experiment on DMS 273 small cell lung was greater than 100 µM throughout. In the experiment on SNB-78 CNS, this molecule yielded a TGI greater than 100 µM.
In turn, `O=C(O)CCC(=O)c1ccc[nH]1` registered a TGI with MDA-N greater than 100 µM.
Take `O=C(/C=C/c1ccccc1O)c1ccccc1O`: the TGI in the experiment on DMS 114 small cell lung, in the experiment on M19-MEL melanoma, with KM20L2 colon, in the experiment with DMS 273 small cell lung and in the experiment on SNB-78 CNS was greater than 100 µM each time.
